In patent US20190307729A1, “ANTIMICROBIAL COMPOUNDS AND METHODS FOR USE THEREOF” (VERSITECH LIMITED, priority 2016, published 2019):
Entries after “also recorded” stand apart in the source; their conditions may differ. Read-outs that look alike come from different tables or passages of the source.

Key:
hla promoter [1] = test: Paper disc diffusion and lux assay (hla promoter lux reporter); type: cell-based, S. aureus
Protocol: A single colony of bioluminescent S. aureus carrying the hla-promoter lux reporting system was resuspended in 200 μl of sterile water, diluted 1000-fold into 0.7% (w/v) BHI agar and overlaid onto BHI agar plates. 10 μl of the 50 mM analogues compounds dissolved in DMSO were impregnated to paper disc and placed on the lawn of bacteria. The plates were incubated overnight at 37° C. The luminescence was detected with Xenogen IVIS 100 in vivo imaging system (Xenogen, Alameda, Calif.).

Vero cells = test: Cytotoxicity assay (MTT); type: cell-based; conditions: for Cytotoxicity: MTT assays in Vero cells
Protocol: MTT assays are performed for selected compounds on Vero cells according to product instructions.

hla promoter [2] = test: Paper disc diffusion and lux assay (hla promoter lux reporter); type: cell-based, S. aureus; conditions: each compound used at 25 μM
S. aureus Mu3 [3] = test: BALB/c mice infection model, organ bacterial load; conditions: 3 days after infection
Excerpt: (§1) 6-8 weeks old female BALB/c mice were infected with 4×10^8 CFU of S. aureus. […] 3 days after infection, the animals were euthanized; kidneys, livers and spleens were homogenized in PBS, and plated on BHI agar for quantitative bacterial culture.

S. aureus USA300 = test: BALB/c mice infection model, organ bacterial load; conditions: 3 days after infection
Excerpt: as §1

S. aureus = test: MIC of compound 3 and analogues (Table 7, strain not given)
S. aureus Mu3 [4] = test: Secondary screening of compound 13 analogues in combination with gentamicin (growth by OD 595 nm); conditions: for activity at 5 µM / activity at 20 µM / activity at 50 µM / inhibition at 20 µM / inhibition at 50 µM: Staphylococcus aureus; for activity at 5 µM / activity at 20 µM / activity at 50 µM: MU3, 16 h, read-out: relative growth; for inhibition at 20 µM: MU3, read-out: 20 μM + 200 μg/ml Gentamicin Growth inhibition Percentage; for inhibition at 50 µM: MU3, read-out: 50 μM + 200 μg/ml Gentamicin Growth inhibition Percentage; for relative growth: relative to DMSO = 1
Protocol: All screening is done in 384-well polystyrene microtiter plates (Greiner Bio-One). Overnight culture of Mu3 is washed with BHI medium 3 times, diluted and plated to give 5×10^5 CFU/mL per well. The plates are incubated at 37° C. for 16 hours and growth is monitored by optical density reading at 595 nm using an automated DTX 880 multimode detector. Screening using BHI medium is designated as the background screen. […] Sub MIC concentration of antibiotics is selected for screening. BHI containing a final concentration for gentamicin 156.25 μg/mL is used correspondingly for individual experiments. […] Screening results with various antibiotics is normalized with the background screening to calculate the percentage of growth inhibition.
Identical experimental procedures are performed as primary screening procedures, except different concentrations of selected compound are tested.
Secondary like screening was performed with different concentrations of each analogue compounds were tested with different gentamicin concentration, 50 μM, 20 μM and 5 μM compound concentration were used against, BHI containing, 0 μg/ml, 100 μg/ml and 200 μg/ml gentamicin.

S. aureus Mu3 strain = test: Microdilution checkerboard assay of compound with aminoglycosides; conditions: for Combinatory effect with gentamicin: checkerboard
Protocol: (§2) The Checkerboard assay is performed in 96-well microtitre plates. […] The antibiotics are 2 fold serially diluted along the ordinate, the compounds are added along the abscissa to generate the checkerboard concentration gradients between the compounds and the antibiotics. Bacterial culture are topped and incubated overnight. Bacterial growth is monitored by the OD absorbance at 595 nm.
(§3) The concentration tested range was from 500M to 0.98 μM. MICs higher than 500M were not determined.

E. coli = test: Checkerboard assay with gentamicin; type: cell-based, Escherichia coli
Protocol: Bacterial culture are topped and incubated overnight.

P. aeruginosa = test: Pigment formation (virulence suppression); type: cell-based, Pseudomonas aeruginosa
L. monocytogenes = test: Checkerboard assay with gentamicin
Protocol: as §2, §3

E. faecalis = test: Checkerboard assay with gentamicin
Protocol: as §2, §3

S. pneumoniae = test: Checkerboard assay with gentamicin
Protocol: as §2, §3

MRSA Mu3 = test: Minimal inhibitory concentration (MIC) test, broth micro-dilution; type: cell-based, Staphylococcus aureus; conditions: microbroth dilution
Protocol: Preliminary testing of the MIC value of three antibiotics (Gentamicin, Ceftriaxone, and Levofloxacin) against MRSA Mu3 was performed according to microbroth dilution methods. This was to establish the reference for the appropriate amount of antibiotics to be used for HTS for hit identification of compounds that could have synergistic activities or potentiate the antibiotic's antimicrobial effect. The MIC value of Gentamicin against MRSA Mu3 was determined to be 1000 μg/mL.

Row | Compound | repression in hla promoter lux reporter assay (hla promoter [1]) | Cytotoxicity (Vero cells) | activity at 5 µM (S. aureus Mu3 [4]) [%] | activity at 20 µM (S. aureus Mu3 [4]) [%] | activity at 50 µM (S. aureus Mu3 [4]) [%] | inhibition at 20 µM (S. aureus Mu3 [4]) [%] | inhibition at 50 µM (S. aureus Mu3 [4]) [%] | relative growth (S. aureus Mu3 [4]; [Cpd] 5 μM, [Genta] 100 ug/ml) | relative growth (S. aureus Mu3 [4]; [Cpd] 5 μM, [Genta] 200 ug/ml) | relative growth (S. aureus Mu3 [4]; [Cpd] 20 μM, [Genta] 100 ug/ml) | relative growth (S. aureus Mu3 [4]; [Cpd] 20 μM, [Genta] 200 ug/ml) | relative growth (S. aureus Mu3 [4]; [Cpd] 50 μM, [Genta] 100 ug/ml) | relative growth (S. aureus Mu3 [4]; [Cpd] 50 μM, [Genta] 200 ug/ml) | cytotoxicity from Vero cell MTT assays (Vero cells) | Combinatory effect with gentamicin (S. aureus Mu3 strain) | combined effect with gentamicin in inhibiting growth (S. aureus Mu3 strain) | also measured
1 | O=C(O)CN1C(=O)/C(=C/c2ccc(OCc3ccccc3)cc2)SC1=S [Compound 3] | significant repression | Low | 118 | 109 | 88 | 60 | 92 | 1.12 | 1.18 | 0.94 | 0.4 | *0.09 | *0.08 |  |  |  | Relative lux signal (hla promoter [2]): 0.00439; kidney bacterial load (S. aureus Mu3 [3]): reduction; also recorded: reduce kidney bacterial load; liver bacterial load (S. aureus Mu3 [3]): reduction; also recorded: reduce liver bacterial load; spleen bacterial load (S. aureus Mu3 [3]): reduction; also recorded: reduce spleen bacterial load; liver bacterial load (S. aureus USA300): reduction; also recorded: reduce liver bacterial load; spleen bacterial load (S. aureus USA300): reduction; also recorded: reduce spleen bacterial load; MIC (S. aureus; Staphylococcus aureus): 500 µM
2 | O=C(O)CN1C(=O)/C(=C/c2cccc(OCc3ccc(Cl)cc3Cl)c2)SC1=S [Compound 17] |  | High | 99 | 74 | 43 | 91 | 87 | *0.35 | *0.1 | *0.09 | *0.09 | *0.14 | *0.13 | high cytotoxicity | Potentiating | potentiating activities | combined effect with gentamicin in inhibiting growth (S. aureus Mu3 strain; listed as compound 17): potentiating effect
3 | O=C(O)CN1C(=O)/C(=C/c2cccc(OCc3ccccc3Cl)c2)SC1=S [Compound 19] |  | Medium | 99 | 91 | 76 | 91 | 92 | 0.96 | 0.83 | *0.1 | *0.09 | *0.09 | *0.08 | less cytotoxicity | Potentiating | promising potentiating effect | combined effect with gentamicin in inhibiting growth (S. aureus Mu3 strain; listed as compound 19): potentiating effect
4 | CCOc1cc(/C=C2\SC(=S)N(CC(=O)O)C2=O)ccc1OCc1ccc(Cl)cc1 [Compound 20] |  | Medium/Low | 101 | 78 | 91 | 91 | 86 | 0.96 | 0.88 | *0.14 | *0.09 | *0.17 | *0.14 | less cytotoxicity | Potentiating | promising potentiating effect | combined effect with gentamicin in inhibiting growth (S. aureus Mu3 strain; listed as compound 20): potentiating effect
5 | CCCOc1ccc(/C=C2\SC(=S)N(CC(=O)O)C2=O)cc1 [Compound 48] | significant repression |  | 98 | 95 | 87 | 36 | 69 | 0.97 | 0.96 | 0.97 | 0.64 | 0.8 | *0.31 |  |  |  | 
6 | O=C(O)CN1C(=O)C(=Cc2ccc(OCc3ccc(Cl)cc3)cc2)SC1=S [Compound 82] |  | Low |  |  |  |  |  | 0.98 | 0.61 | *0.09 | *0.09 | *0.13 | *0.11 | low cytotoxicity | Potentiating | good level of potentiating effect | combined effect with gentamicin in inhibiting growth (E. coli): synergistic effect; combined effect with gentamicin in inhibiting growth (E. coli; listed as compound 82): potentiating effect; pigment formation (P. aeruginosa): repressing the pigment formation; combined effect with gentamicin in inhibiting growth (L. monocytogenes): potentiating effect; combined effect with gentamicin in inhibiting growth (E. faecalis): potentiating effect; combined effect with gentamicin in inhibiting growth (S. pneumoniae): potentiating effect; combined effect with neamine in inhibiting growth (S. aureus Mu3 strain): retained its potentiating effect; combined effect with neamine in inhibiting growth (S. aureus Mu3 strain; listed as compound 82): potentiating effect; 20 μM + 200 μg/ml Gentamicin Growth inhibition Percentage (S. aureus Mu3 [4]; 20 μM compound + 200 μg/ml gentamicin, S. aureus Mu3): 91%; 50 μM + 200 μg/ml Gentamicin Growth inhibition Percentage (S. aureus Mu3 [4]; 50 μM compound + 200 μg/ml gentamicin, S. aureus Mu3): 89%; relative growth (S. aureus Mu3 [4]; [Cpd] 5 μM, BHI only (no gentamicin)): 1.03; relative growth (S. aureus Mu3 [4]; [Cpd] 20 μM, BHI only (no gentamicin)): 0.78; relative growth (S. aureus Mu3 [4]; [Cpd] 50 μM, BHI only (no gentamicin)): 0.99
7 | COc1ccc(/C=C2/SC(=S)N(CCC(N)=O)C2=O)cc1 [Compound 87] | hla promoter lux repression |  |  |  |  |  |  |  |  |  |  |  |  |  |  |  | Relative lux signal (hla promoter [2]): 0.2657; MIC (S. aureus): 500 µM
8 | Gentamicin |  |  |  |  |  |  |  |  |  |  |  |  |  |  |  |  | MIC value against MRSA Mu3 (MRSA Mu3): 1000 µg/mL
